The target of series [1] is T1, 5-hydroxytryptamine receptor 1A (Homo sapiens, UniProt P08908).
T1 sequence (P08908 whole entry): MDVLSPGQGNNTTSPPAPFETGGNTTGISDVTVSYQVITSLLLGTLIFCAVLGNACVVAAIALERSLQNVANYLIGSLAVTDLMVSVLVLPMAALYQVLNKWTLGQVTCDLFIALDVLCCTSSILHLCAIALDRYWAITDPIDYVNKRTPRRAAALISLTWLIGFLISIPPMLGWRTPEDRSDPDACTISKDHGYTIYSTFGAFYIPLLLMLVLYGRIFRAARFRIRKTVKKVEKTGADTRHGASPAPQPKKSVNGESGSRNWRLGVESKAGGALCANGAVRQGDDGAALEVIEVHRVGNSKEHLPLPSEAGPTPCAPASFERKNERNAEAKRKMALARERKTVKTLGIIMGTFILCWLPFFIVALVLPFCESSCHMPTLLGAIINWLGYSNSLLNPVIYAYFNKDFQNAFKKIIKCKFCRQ
As to the kind of experiment: Displacement of [3H]-8-OH-DPAT from human 5-HT1A receptor expressed in CHOK1 cells after 30 mins by liquid scintillation counting analysis. The format is cell-based, CHO-K1. In general terms: In a radioligand displacement assay an active substance lowers the binding of a labelled ligand.

Series [2] deals with T2, Sodium-dependent serotonin transporter (Homo sapiens, UniProt P31645). As to the kind of experiment: Inhibition of human SERT expressed in CHO cell membranes assessed as reduction in [3H]serotonin uptake preincubated for 10 mins followed by [3H]serotonin addition measured after 20 mins by liquid scintillation counting method. The format is cell-based.
Series [3] in a line: Antidepressant-like activity in Wistar rat assessed as decrease in immobility time at 1 and 3 mg/kg, po administered 30 mins post start of training session for 2 days measured 2 hrs post last dose by forced swimming test. In kind it is functional, organism-based.
Series [4] is described as follows: Drug uptake in Wistar rat brain at 1 mg/kg, po administered 26 and 2 hrs prior to testing by HPLC/MS analysis. The format is ADME, organism-based. The conditions noted are these: in vivo.
Series [5] is described as follows: Drug uptake in Wistar rat brain at 3 mg/kg, po administered 26 and 2 hrs prior to testing by HPLC/MS analysis. As to conditions: in vivo. In kind it is ADME, organism-based.
In the next series the target is Cytochrome P450 2D6 (Homo sapiens, UniProt P10635). As to the kind of experiment: Inhibition of CYP2D6 in human liver microsomes assessed as reduction in formation of 1'-hydroxy-bufuralol from bufuralol preincubated with enzyme followed by substrate and beta-NADPH addition measured after 10 mins by LC-MS/MS analysis. In kind it is ADME. On the technique in general: Liver microsomes are a subcellular fraction often used to study metabolism.

Series [6] concerns Rattus norvegicus. As to the kind of experiment: Toxicity in Wistar rat assessed as increase in spontaneous locomotor activity at 1 and 3 mg/kg, po administered 26 and 2 hrs prior to testing measured for 30 mins. The format is organism-based. The conditions noted are these: in vivo.
The target of series [7] is T2, Sodium-dependent serotonin transporter. Put plainly: Displacement of [3H]citalopram from human SERT expressed in HEK293 cell membranes after 1 hr by liquid scintillation counting method. In kind it is cell-based.
Series [8] deals with Rattus norvegicus. Put plainly: Toxicity in Wistar rat assessed as increase in spontaneous locomotor activity at 3 and 10 mg/kg, po administered 26 and 2 hrs prior to testing measured for 30 mins. In kind it is organism-based. As to conditions: in vivo, 0.5 h.
Another series relates to HEK293. As to the kind of experiment: Selectivity ratio of Ki for human SERT expressed in HEK293 cell membranes to Ki for human 5-HT1A expressed in CHO-K1 cell membranes. In kind it is cell-based.

As usually defined, the Ki is a dissociation constant, usually derived from enzyme kinetics or from competition with a known ligand. What is called IC50 is the concentration at which inhibition is half-maximal.

Activity calls are given as the source filed them. The calls are words filed in the database; no cut-off is given here. Some results are limits rather than exact numbers.

T2 sequence (P31645 whole entry): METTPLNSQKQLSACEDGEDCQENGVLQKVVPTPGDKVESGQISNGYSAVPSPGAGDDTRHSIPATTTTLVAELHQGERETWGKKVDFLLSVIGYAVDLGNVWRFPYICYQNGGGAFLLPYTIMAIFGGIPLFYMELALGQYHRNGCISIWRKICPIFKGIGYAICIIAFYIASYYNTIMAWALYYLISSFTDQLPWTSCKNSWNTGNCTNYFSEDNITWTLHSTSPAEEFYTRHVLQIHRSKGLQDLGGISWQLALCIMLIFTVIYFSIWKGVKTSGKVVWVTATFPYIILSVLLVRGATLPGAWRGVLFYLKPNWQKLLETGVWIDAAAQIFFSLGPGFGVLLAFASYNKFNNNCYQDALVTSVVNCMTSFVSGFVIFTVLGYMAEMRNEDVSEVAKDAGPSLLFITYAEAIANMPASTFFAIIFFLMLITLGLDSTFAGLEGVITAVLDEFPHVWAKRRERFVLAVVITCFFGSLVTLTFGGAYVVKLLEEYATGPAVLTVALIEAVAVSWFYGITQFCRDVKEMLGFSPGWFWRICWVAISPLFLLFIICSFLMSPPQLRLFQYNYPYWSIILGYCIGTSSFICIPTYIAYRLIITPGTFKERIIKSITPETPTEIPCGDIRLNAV
Chain of Cytochrome P450 2D6 (P10635 whole entry): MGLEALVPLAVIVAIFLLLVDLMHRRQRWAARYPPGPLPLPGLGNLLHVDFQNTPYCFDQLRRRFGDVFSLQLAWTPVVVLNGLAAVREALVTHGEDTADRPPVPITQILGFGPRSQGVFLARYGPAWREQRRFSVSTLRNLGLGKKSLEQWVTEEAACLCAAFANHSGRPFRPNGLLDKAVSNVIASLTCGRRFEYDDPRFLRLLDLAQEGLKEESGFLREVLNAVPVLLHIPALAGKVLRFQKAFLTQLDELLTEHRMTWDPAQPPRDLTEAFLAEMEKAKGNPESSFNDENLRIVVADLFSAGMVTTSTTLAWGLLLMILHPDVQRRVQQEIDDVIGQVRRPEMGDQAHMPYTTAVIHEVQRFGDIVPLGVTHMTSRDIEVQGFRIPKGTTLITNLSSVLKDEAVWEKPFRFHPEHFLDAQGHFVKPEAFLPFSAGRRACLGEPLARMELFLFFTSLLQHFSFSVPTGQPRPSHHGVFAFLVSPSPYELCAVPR

As to `COc1cccc(CCN2CCC(Cc3cc(OC)ccc3Br)CC2)c1`, the figures for the Ki in [1] and in [2] were 0.82 nM and 37.5 nM, respectively.

Take `COc1ccc(Br)c(CC2CCN(CCc3cccc4ccccc34)CC2)c1`: the Ki worked out at 4.81 nM in [1] and 38.9 nM in series [2].

With `COc1ccc(CCN2CCC(Cc3cc(OC)ccc3Br)CC2)c(Cl)c1`, the Ki worked out at 1.12 nM in series [1] and 30.5 nM in series [2].

For the compound `COc1ccc(Br)c(CC2CCN(CCc3ccccc3OC)CC2)c1`, the Ki in series [1] was found to be 3.03 nM; in series [2], 37.6 nM.

With `COc1ccc(Br)c(CC2CCN(CCc3ccc4c(c3)OCCO4)CC2)c1`, the Ki in series [1] was found to be 0.36 nM; in series [2] it was 14 nM.

`COc1ccc(Br)c(CC2CCN(CCc3ccc(Cl)cc3)CC2)c1`: the Ki in series [1] was found to be 1.34 nM; in series [2], 46.2 nM.

`COCCOc1ccc(Br)c(CC2CCN(CCc3cc4c(cc3Cl)OCCO4)CC2)c1.Cl`: the result in [3] was Active. For the same compound, the values for the Drug uptake in series [4] and in series [5] were 6.74 nmol/kg and 30.3 nmol/kg, respectively. In addition, the IC50 came to 306 nM in series [2] and 3000 nM at Cytochrome P450 2D6. Also, the Ki in series [2] was determined as 32.7 nM. Further, the Activity result in the series on Rattus norvegicus [6] is listed as “Non-Toxic”.

For `COc1ccc(Br)c(CC2CCN(CCc3ccccc3Cl)CC2)c1`, the Ki in [1] was determined as 4.08 nM; in [2], 62.4 nM.

Consider `COc1ccc(Br)c(CC2CCN(CCc3cccc4c3OCCO4)CC2)c1`, for which the Ki was found to be 2.12 nM in series [1] and 25.6 nM in series [2].

The compound `COc1ccc(F)c(CC2CCN(C3CCN(c4ccc(OC)c(OC)c4)CC3)CC2)c1` returned a Ki in series [7] below 100 nM.

On to `Fc1ccc([C@@H]2CCNC[C@H]2COc2ccc3c(c2)OCO3)cc1` [PAROXETINE], for which the Activity entry in the series with Rattus norvegicus [8] is recorded as “Non-Toxic”.

Regarding `COc1ccc(Br)c(CC2CCN(CCc3ccccc3)CC2)c1`, in the series with HEK293, the Ratio Ki was above 20. Also, the Ki in series [1] is 2.72 nM; in series [7], 66.4 nM; in series [2], 66.4 nM.

In the case of `COc1ccc(Br)c(CC2CCN(CCc3cc(OC)c(OC)cc3Cl)CC2)c1`, the Ki in [1] came to 1.96 nM; in [2], 28 nM.

Take `COc1ccc(F)c(CC2CCN(CCc3ccccc3)CC2)c1`: the Ki in series [1] stood at 6.04 nM; in series [7] it was 274 nM.

Take `COc1ccc(CCN2CCC(Cc3cc(OC)ccc3Br)CC2)cc1`: the values for the Ki in series [1] and in [2] were 0.81 nM and 37.5 nM, respectively.

`COc1ccc(Br)c(CC2CCN(CCc3ccc(OC)c(OC)c3)CC2)c1`: the inhibitory constant (Ki) was 1.56 nM in [1] and 26.9 nM in series [2].

As for `COc1ccc(Br)c(CC2CCN(CCc3cccc(Cl)c3)CC2)c1`, the Ki was found to be 2.93 nM in series [1] and 42.6 nM in series [2].

Take `COc1ccc(Cl)c(CC2CCN(CCc3ccccc3)CC2)c1`: the inhibition constant Ki in series [1] is 2.27 nM; in [7] it was 102 nM.

For `CC(C)Oc1ccc(Br)c(CC2CCN(CCc3cc4c(cc3Cl)OCCO4)CC2)c1`, the Ki in series [1] amounted to 15.9 nM; in series [2] it was 13.9 nM. The IC50 at Cytochrome P450 2D6 was 1500 nM.

As to `COc1ccc(Br)c(CC2CCN(CCc3cc4c(cc3Cl)OCCO4)CC2)c1`, the Ratio Ki with HEK293 is below 2. In addition, the Ki in [1] turned out to be 6.46 nM; in series [2], 12.4 nM. In addition, the IC50 at Cytochrome P450 2D6 was below 400 nM.

`COc1ccc(Br)c(CC2CCN(CCc3ccc(F)cc3)CC2)c1`: the Ki in series [1] is 1.04 nM; in series [2], 51.2 nM.

For the compound `COc1ccc(Br)c(CC2CCN(CCc3ccc4ccccc4c3)CC2)c1`, the inhibitory constant (Ki) was 0.89 nM in series [1] and 25.6 nM in series [2].

On to `CCOc1ccc(Br)c(CC2CCN(CCc3cc4c(cc3Cl)OCCO4)CC2)c1`, for which the Ki in [1] turned out to be 23.4 nM; in series [2] it was 18.7 nM. For the same compound, the IC50 on Cytochrome P450 2D6 is 1400 nM.

Consider `COc1ccc(Br)c(CC2CCN(C3CCN(c4ccc(OC)c(OC)c4)CC3)CC2)c1`, for which, in series [1], the IC50 is below 10 nM.

In the case of `COc1ccc(Br)c(CC2CCN(CCc3ccc(OC)c(Cl)c3)CC2)c1`, the Ki amounted to 1.04 nM in series [1] and 18.9 nM in [2].

Take `COc1ccc(Br)c(CC2CCN(CCc3ccc(C)cc3)CC2)c1`: the Ki in series [1] turned out to be 1.4 nM; in series [2], 65.3 nM.

Take `COc1cccc(CC2CCN(CCc3ccccc3)CC2)c1`: the Ki amounted to 29.3 nM in [1] and 212 nM in [7].

(Values after ChEMBL document CHEMBL3871287, “Discovery of SMP-304, a novel benzylpiperidine derivative with serotonin transporter inhibitory activity and 5-HT1A weak partial agonistic activity showing the antidepressant-like effect” (Bioorg Med Chem, 2017).)
